The source of these data is patent US20060194315A1, “Compositions and methods for the control, differentiaton and/or manipulation of pluripotent cells through a gamma-secretase signaling pathway” (priority 2003, published 2006).

One experiment relates to Hes1. Kind of experiment: Real-time RT-PCR of Hes1 induction by EDTA in hES cells. The class given is cell-based, human. The protocol:
Hes1 induction by EDTA treatment was monitored by real-time RT-PCR. Cultures of […] on Matrigel-coated 24-well plates were treated with either 0.5% DMSO or 50 μM DAPT in CM for 4 hours to overnight before induction by EDTA exposure. The wells were exposed to 2 mM EDTA in CM (with DMSO or DAPT) for 15 minutes at 37° C. EDTA was neutralized by addition of 4.9 mM CaCl2 and incubated for a further 1.5 hours. The cells were harvested with Trizol and RNA was extracted as described above. Real-time PCR was performed using TaqMan primers and probes (Applied Biosystems, Inc.) for Hes1 (primer sequences: […] ID NO: 17); […] ID NO:18); probe […] NO:19)) and normalized to GAPDH (kit from Applied Biosystems, Inc; cat. no. 402869). Reactions were run and monitored on an ABI7700 Sequence Detection System (Applied Bioysytems, Inc). Data was analyzed as described in Pfaffl et al., 2002 Nucleic Acids Research 30(9): […]. REST-XL (version 2) software was used to determine relative quantification of Hes1 gene expression. The data were expressed as the ratio of GAPDH normalized Hes1 expression of EDTA-treated to EDTA-untreated samples. DAPT treated cultures were compared to DMSO treated cultures. These values were log transformed for statistical analysis by t-test and graphed in Excel.
A general note: In qPCR the cycle at which signal appears reflects the starting amount.

For experiment [1], the system named is hES cells. The experiment can be described thus: Embryoid body formation from late trypsin passaged hES cultures. Type of experiment: cell-based, human. The settings on record: late trypsin passaged cultures maintained in DAPT vs DMSO vs untreated. On the procedure: Embryoid bodies were formed from cultures that had been growing on Matrigel and exposed to the different treatments. These cultures were exposed to Collagenase type IV or Dispase (Gibco) for 10 minutes at 37° C. until a monolayer of cells lifted off of the dish. The monolayer was passed through a pipette tip until it was broken down to small clumps of approximately 500-1000 cells. These clumps were washed in 15% FBS/1% MEM nonessential amino acids/1 mM L-glutamine/penicillin (0.5 U/ml) and streptomycin (0.5 U/ml) twice by allowing them to settle by gravity, removing the supernatant, and resuspending the loose pellet. The cells were plated onto agarose coated Petri dishes in the same medium used for washing and allowed to grow for up to 10 days.
Inhibition of gamma-secretase reduces the number of spontaneously differentiated cells in the culture. […] These experiments are diagramed in FIG. 9. hES cell master cultures were maintained with the manual passaging technique. A combination of Collagenase type IV treatment and Trypsin/EDTA exposure was used to passage the hES cells as single cells for no more than 10-12 passages before SSEA4 selection for early trypsin cultures, or were passaged more than 40 passages for late trypsin cultures. […] The treated cultures were analyzed for SSEA4 expression by flow cytometry, immunohistochemistry, and EB formation.

Experiment [2] deals with hES cells (BGN1 and BGN2). The experiment can be described thus: Flow cytometry of SSEA4 and Notch1 expression in treated hES cell cultures. The class given is cell-based, human. The settings on record: for proportion of cells in Fr. A (SSEA4high/Notch1high, undifferentiated cells): 50 μM DAPT vs DMSO, four experiments. On the procedure: Cultures were harvested by Collagenase/trypsin passaging methods described above as an essentially single cell suspension, washed in 1×PBS, and fixed in 1% paraformaldehyde for 25 minutes on ice. The cells were washed in 1×PBS, blocked in 3% goat serum, and stained with primary antibodies for 30 minutes. to overnight at 4° C. The cells were washed in 1×PBS three times and stained with Secondary FITC or PE conjugated antibodies (Jackson Immunochemicals, Inc.) for 1 hour to overnight at 4° C. The cells were washed with 1×PBS three times and analyzed on a CyAn flow cytometer (DakoCytomation, Inc.).
Inhibition of gamma-secretase reduces the number of spontaneously differentiated cells in the culture. […] These experiments are diagramed in FIG. 9. hES cell master cultures were maintained with the manual passaging technique. A combination of Collagenase type IV treatment and Trypsin/EDTA exposure was used to passage the hES cells as single cells for no more than 10-12 passages before SSEA4 selection for early trypsin cultures, or were passaged more than 40 passages for late trypsin cultures. The cultures were selected for SSEA4 epitope expression using magnetic selection of SSEA4 antibody-stained cells. The retained fraction from the sort was plated and subjected to the treatment conditions. In some instances, SSEA4 selected cells were expanded for one or two passages. Treatment conditions were 50 μM DAPT, or 0.5% DMSO as carrier control. In some cases, these conditions were compared to untreated cells. The treated cultures were analyzed for SSEA4 expression by flow cytometry, immunohistochemistry, and EB formation.

For a further experiment, the target named is T1, gamma-secretase complex (Homo sapiens, UniProt P49768).
T1 construct: endogenous in cells; host or cells: BGN1 human embryonic stem cells, grown on mouse embryonic fibroblast feeders
T1 sequence (Q92542 34-709, other chains not shown): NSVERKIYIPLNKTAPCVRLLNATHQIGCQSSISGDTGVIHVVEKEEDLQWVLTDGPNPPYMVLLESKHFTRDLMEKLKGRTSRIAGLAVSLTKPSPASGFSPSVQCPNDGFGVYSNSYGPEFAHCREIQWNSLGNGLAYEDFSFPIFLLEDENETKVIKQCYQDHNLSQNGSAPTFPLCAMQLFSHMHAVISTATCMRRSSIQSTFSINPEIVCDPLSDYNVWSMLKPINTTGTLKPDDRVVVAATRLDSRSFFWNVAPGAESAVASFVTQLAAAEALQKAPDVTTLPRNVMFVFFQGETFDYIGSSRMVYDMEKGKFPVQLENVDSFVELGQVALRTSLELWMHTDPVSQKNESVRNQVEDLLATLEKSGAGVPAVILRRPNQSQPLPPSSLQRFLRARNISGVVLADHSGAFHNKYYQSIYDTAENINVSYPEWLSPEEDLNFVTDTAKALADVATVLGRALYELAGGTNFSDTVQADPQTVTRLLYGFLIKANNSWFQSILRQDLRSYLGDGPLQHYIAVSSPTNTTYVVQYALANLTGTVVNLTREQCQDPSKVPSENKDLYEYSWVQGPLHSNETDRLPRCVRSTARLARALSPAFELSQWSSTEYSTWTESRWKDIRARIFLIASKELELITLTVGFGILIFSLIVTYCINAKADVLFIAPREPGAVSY
T1 sequence (Q96BI3 whole entry, other chains not shown, further chain): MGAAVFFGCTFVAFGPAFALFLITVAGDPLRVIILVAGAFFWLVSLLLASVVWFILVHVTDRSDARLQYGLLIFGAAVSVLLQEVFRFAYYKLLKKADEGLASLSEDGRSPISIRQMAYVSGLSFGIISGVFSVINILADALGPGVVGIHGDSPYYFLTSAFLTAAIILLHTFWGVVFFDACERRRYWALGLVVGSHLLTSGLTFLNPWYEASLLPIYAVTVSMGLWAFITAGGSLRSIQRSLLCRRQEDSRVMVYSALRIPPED
T1 sequence (Q9NZ42 whole entry, other chains not shown, further chain): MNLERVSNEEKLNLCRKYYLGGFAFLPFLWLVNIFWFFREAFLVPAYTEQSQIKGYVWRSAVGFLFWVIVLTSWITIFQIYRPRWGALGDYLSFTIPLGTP
Kind of experiment: Western blot for gamma-secretase cleaved Notch1 (NICD) in hES cells harvested with Trypsin/EDTA. The settings on record: BGN1 hES cells grown in 50 μM DAPT for 3 days, vs 0.5% DMSO. Type of experiment: cell-based. The protocol: Western blots were done using standard procedures. In brief, protein content of samples was determined with a BCA micro protein assay (Pierce, Rockford, Ill.) and equal amounts of protein were loaded onto precast polyacrylamide mini-gels (Gradipore, Australia). Proteins were transferred to nylon membranes which were then incubated for 30 minutes in blocking buffer (tris buffered saline/0.1% tween 20/5% powdered milk). Primary antibodies were diluted in blocking buffer at the following ratios: bTAN20 and C651.6bHN were diluted 1:10; anti-Oct4 was diluted 1:100; anti-presenilin, nicastrin, cleaved NOTCH1 were diluted 1:1000 and anti-HDAC was used at a concentration of 0.5 μg/ml. Primary antibodies were incubated overnight at 4° C., followed by two five-minute washes and one 15-minute wash in tris-buffered saline/0.1% tween 20. Secondary antibodies were diluted in blocking buffer and incubated with the membranes for 45 minutes at room temperature. Washes were repeated as above and a final 15-minute wash was done with tris-buffered saline. ECL (Amersham, Buckinghamshire, England) was performed according to the manufacturer's instructions and autoradiographs were made.
To address the possibility that trypsin non-specifically generated the 110 kD Notch1 band, DAPT, a potent and specific gamma-secretase inhibitor, was used to treat the hES cells before harvesting. […]
A general note: A western blot detects proteins with antibodies after separation by electrophoresis.

Experiment [3] relates to hES cells. Kind of experiment: SSEA4 immunohistochemistry of treated hES cell cultures. The class given is cell-based, human. Particulars: 50 μM DAPT vs DMSO treated cultures. On the procedure:
Cells on chamber slides were rinsed once with 1× PBS and fixed for 30 minutes in 4% PFA/4% sucrose in PBS pH7.4 at room temperature for surface staining, or in ice cold 100% methanol for 5 minutes at −20° C. followed by 4% PFA/4% sucrose in PBS for 10 minutes at room temperature for intracellular staining using the bTAN20 antibody. They were rinsed 3× in 1×PBS and blocked in 3% goat serum/1% PVP with or without 0.3% Triton-X100 in PBS for 30 minutes at 4° C. Primary antibodies were diluted in blocking solution and this solution was applied overnight at 4° C. to the cells. Cells were rinsed in 1×PBS and washed overnight with 3 changes of 1×PBS. Secondary antibodies were applied in blocking solution for 2 hours at 4° C. They were rinsed in 1×PBS then washed overnight with 3 changes of 1×PBS. Cell nuclei were stained with DAPI at 1 μg/ml in the first rinse for 10 minutes. The chambers were removed and slides were mounted in VectaShield mounting medium.
Inhibition of gamma-secretase reduces the number of spontaneously differentiated cells in the culture. […] These experiments are diagramed in FIG. 9. hES cell master cultures were maintained with the manual passaging technique. […] The treated cultures were analyzed for SSEA4 expression by flow cytometry, immunohistochemistry, and EB formation.

[4] abbreviates: inhibitor treatment vs DMSO, 4 experiments, BGN1 and BGN2.

The structures appear in SMILES notation.

As for `O=C(O)CN(CCN(CC(=O)O)CC(=O)O)CC(=O)O` [EDTA], the “Hes1 induction by EDTA exposure” value with Hes1 (2 mM EDTA 15 minutes, three independent experiments) was “up to 10 fold”.
In the case of `C[C@H](NC(=O)Cc1cc(F)cc(F)c1)C(=O)N[C@H](C(=O)OC(C)(C)C)c1ccccc1` [DAPT, N-[N-(3,5-Difluorophenacetyl-L-alanyl)]-S-phenylglycine t-Butyl Ester], in the experiment with Hes1 (50 μM DAPT 4 hours to overnight, 2 mM EDTA 15 minutes, three independent experiments), the “Hes1 induction by EDTA in the presence of the inhibitor (GAPDH normalized expression ratio)” value is “less than two-fold”. For the same compound, in the experiment on Hes1 (EDTA induction, DAPT vs DMSO, p=0.032, t-test), the “reduction in Hes1 expression with inhibitor treatment, significance” value is “significant”. For the same compound, the “morphology of embryoid bodies” value with hES cells [1] is “returned the EBs to a cystic morphology”. Besides, in experiment [2] (BGN1 and BGN2), the “proportion of cells in Fr. A (SSEA4high/Notch1high, undifferentiated cells)” value is “small but significant increase”. In addition, the “proportion of cells in Fr. A (SSEA4high/Notch1high, undifferentiated cells)” value in experiment [2] (BGN1 and BGN2, listed as inhibitor) is listed as “significantly increased”. The “cells in Fr. B (SSEA4low-neg/Notch1pos, differentiating cells)” value in experiment [2] (50 μM DAPT, average of four experiments, BGN1 and BGN2, DMSO control 30%, p=0.0243) amounted to 15%. In experiment [2] (DAPT vs DMSO and untreated, triplicate cultures), the “proportion of Fr. B (SSEA4low-neg/Notch1pos) cells in culture, in words” value is on record as “reduced”. Moreover, in experiment [2] (setting [4]), the “number of cells in Fr. A” value is given as “remained unchanged” and the “number of cells in Fr. B” value is “significantly reduced”. Moreover, the “generation of the NICD fragment (cleaved form of Notch1) upon Trypsin/EDTA exposure” value at gamma-secretase complex was “not generated”. For the same compound, in the experiment on hES cells [3], the “homogeneity of SSEA4 expression (immunohistochemical stain)” value was “more homogenous”.
